# Key:
# Neuromedin U NMU1 = molecular target: T1, Neuromedin U NMU1 (Homo sapiens, UniProt Q9HB89); assay: Radioligand binding panel (Table S1); details: 10 μM T1-11, n 2
# T1 construct: purchased MDS Pharma Services Taiwan
# Adrenergic α 1D = molecular target: T2, Adrenergic α 1D (Homo sapiens, UniProt P25100); assay: Radioligand binding panel (Table S1); details: 10 μM T1-11, n 2
# T2 construct: purchased MDS Pharma Services Taiwan
# Prostanoid EP2 = molecular target: T3, Prostanoid EP2 (Homo sapiens, UniProt P43116); assay: Radioligand binding panel (Table S1); details: 10 μM T1-11, n 2
# T3 construct: purchased MDS Pharma Services Taiwan
# Cannabinoid CB2 = molecular target: T4, Cannabinoid CB2 (Homo sapiens, UniProt P34972); assay: Radioligand binding panel (Table S1); details: 10 μM T1-11, n 2
# T4 construct: purchased MDS Pharma Services Taiwan
# Muscarinic M4 = molecular target: T5, Muscarinic M4 (Homo sapiens, UniProt P08173); assay: Radioligand binding panel (Table S1); details: 10 μM T1-11, n 2
# T5 construct: purchased MDS Pharma Services Taiwan
# Ryanodine RyR3 = molecular target: T6, Ryanodine RyR3 (Rattus norvegicus, UniProt A0ABK0LPH6); assay: Radioligand binding panel (Table S1); details: 10 μM T1-11, n 2
# T6 construct: purchased MDS Pharma Services Taiwan
# Glutamate, NMDA, Glycine = Glutamate, NMDA, Glycine (Rattus norvegicus, UniProt P35439); assay: Radioligand binding panel (Table S1); details: 10 μM T1-11, n 2
# A3 adenosine receptor = molecular target: T7, A3 adenosine receptor (Homo sapiens, UniProt P0DMS8); assay: Radioligand binding assay
# T7 construct: host or cells: CHO-K1
# T7 sequence (P0DMS8 1-318): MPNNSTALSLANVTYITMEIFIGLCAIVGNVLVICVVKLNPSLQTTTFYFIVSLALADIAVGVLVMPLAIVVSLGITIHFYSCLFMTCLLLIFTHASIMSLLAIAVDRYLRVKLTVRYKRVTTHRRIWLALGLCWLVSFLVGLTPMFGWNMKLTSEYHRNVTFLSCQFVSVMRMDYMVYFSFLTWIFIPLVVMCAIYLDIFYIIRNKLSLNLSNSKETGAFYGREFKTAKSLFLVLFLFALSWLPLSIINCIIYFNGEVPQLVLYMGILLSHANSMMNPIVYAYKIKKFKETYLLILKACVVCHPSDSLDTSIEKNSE
# Bombesin BB2 = molecular target: T8, Bombesin BB2 (Homo sapiens, UniProt P30550); assay: Radioligand binding panel (Table S1); details: 10 μM T1-11, n 2
# T8 construct: purchased MDS Pharma Services Taiwan
# Neuropeptide Y Y2 = molecular target: T9, Neuropeptide Y Y2 (Homo sapiens, UniProt P49146); assay: Radioligand binding panel (Table S1); details: 10 μM T1-11, n 2
# T9 construct: purchased MDS Pharma Services Taiwan
# human A3R = molecular target: T10, human A3R (Homo sapiens, UniProt P0DMS8); assay: GTPγS binding assay; type: biochemical
# T10 construct: host or cells: CHO-K1
# Procedure: The GTPγS binding assay was conducted by MDS Pharma Services Taiwan using a previously described protocol with slight modifications. In brief, membrane proteins collected from Chinese hamster ovary (CHO-K1) cells expressing the human A3R (5∼10 µg per reaction) were incubated with the indicated drug and ^35S-GTPγS (0.1 nM) in a total volume of 500 µl for 30 min at 30°C. The reaction buffer was composed of 20 mM HEPES (pH 7.4), 100 mM NaCl, 10 mM MgCl2, 1 mM DTT, and 1 mM EDTA. The reaction was terminated by filtration over GF/B glass fibers and washed with the same reaction buffer. Relative GTPγS binding was defined as the percentage of ^35S-GTPγS binding when compared to that of a selective agonist of the A3R (2-Cl-IB-MECA, 3 µM) under the same binding conditions.
# Supplementary file pone.0020934.s004.tif: Figure S4 T1-11 binds to the A3 adenosine receptor (A3R) without evoking a significant binding of GTP. Membrane fractions collected from CHO-K1 cells expressing the human A3R were incubated with T1-11 at the indicated concentration and ^35S-GTPγS (0.1 nM) for 30 min at 30°C. Relative GTPγS binding was defined as the percentage of ^35S-GTPγS binding when compared with a selective agonist of the A3R (2-Cl-IB-MECA, 3 µM). (TIF) Click here for additional data file.
# Dopamine D3 = molecular target: T11, Dopamine D3 (Homo sapiens, UniProt P35462); assay: Radioligand binding panel (Table S1); details: 10 μM T1-11, n 2
# T11 construct: purchased MDS Pharma Services Taiwan
# R6/2 mice = assay: Hemodynamic examination of R6/2 mice; type: in vivo; details: subcutaneous Alzet minipump for 48 h, 125 µg/mouse/day
# Procedure: Heart rates and blood pressure of conscious and anesthetized mice were measured using a blood pressure monitor (model MK-2000; Muromachi Kikai, Tokyo, Japan) between 10 AM to 6 PM. Values of 12–18 successful readings per mouse were used to determine the blood pressure.
# (A) T1-11 (125 µg/mouse/day) or vehicle (CON) was administrated subcutaneously to the indicated mice of 7 weeks old using ALZET osmotic minipumps for 6 weeks. Rotarod performance was assessed. (B, C) T1-11 (125 µg/mouse/day) was administrated subcutaneously to the indicated mice of 9 weeks old using ALZET osmotic minipumps for 48 h. Heart rate (B) and blood pressure (C) were determined by a tail-cuff method. * p<0.05. *** p<0.005. (TIF) Click here for additional data file.
# Somatostatin sst2 = molecular target: T12, Somatostatin sst2 (Homo sapiens, UniProt P30874); assay: Radioligand binding panel (Table S1); details: 10 μM T1-11, n 2
# T12 construct: purchased MDS Pharma Services Taiwan
# [1] = molecular target: T13, Adenosine transporter (ENT1) (Cavia porcellus, UniProt H0V4R7); assay: Radioligand binding assay; parameters: species or system guinea pig
# T13 construct: Membrane fractions collected from the cerebral cortex of Duncan Hartley derived guinea pigs; tissue MDS Pharma Services Taiwan; host or cells: guinea pig cerebral cortex
# T13 sequence (H0V4R7 1-461): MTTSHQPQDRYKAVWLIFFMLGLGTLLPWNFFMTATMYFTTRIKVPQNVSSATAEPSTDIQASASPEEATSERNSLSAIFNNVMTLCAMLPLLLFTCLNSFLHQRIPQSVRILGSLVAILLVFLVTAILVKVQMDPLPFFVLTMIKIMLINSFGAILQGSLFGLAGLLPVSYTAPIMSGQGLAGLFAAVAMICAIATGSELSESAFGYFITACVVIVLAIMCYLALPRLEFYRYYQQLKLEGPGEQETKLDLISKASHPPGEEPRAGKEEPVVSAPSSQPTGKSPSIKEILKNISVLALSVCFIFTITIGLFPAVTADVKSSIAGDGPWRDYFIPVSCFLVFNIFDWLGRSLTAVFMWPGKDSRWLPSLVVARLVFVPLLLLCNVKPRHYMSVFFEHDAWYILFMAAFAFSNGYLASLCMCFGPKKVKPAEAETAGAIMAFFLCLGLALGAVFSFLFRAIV
# Adrenergic β 1 = molecular target: T14, Adrenergic β 1 (Homo sapiens, UniProt P08588); assay: Radioligand binding panel (Table S1); details: 10 μM T1-11, n 2
# T14 construct: purchased MDS Pharma Services Taiwan
# Melanocortin MC4 = molecular target: T15, Melanocortin MC4 (Homo sapiens, UniProt P32245); assay: Radioligand binding panel (Table S1); details: 10 μM T1-11, n 2
# T15 construct: purchased MDS Pharma Services Taiwan
# [2] = molecular target: T16, Epidermal Growth Factor (EGF) (Homo sapiens, UniProt P00533); assay: Radioligand binding panel (Table S1); details: 10 μM T1-11, n 2
# T16 construct: purchased MDS Pharma Services Taiwan
# [3] = CHO-K1 membranes, 3H-AB-MECA 0.5 nM
# [4] = guinea pig cerebral cortex membranes, 3H-NBTI 0.5 nM
# T16 sequence (P00533 25-1210): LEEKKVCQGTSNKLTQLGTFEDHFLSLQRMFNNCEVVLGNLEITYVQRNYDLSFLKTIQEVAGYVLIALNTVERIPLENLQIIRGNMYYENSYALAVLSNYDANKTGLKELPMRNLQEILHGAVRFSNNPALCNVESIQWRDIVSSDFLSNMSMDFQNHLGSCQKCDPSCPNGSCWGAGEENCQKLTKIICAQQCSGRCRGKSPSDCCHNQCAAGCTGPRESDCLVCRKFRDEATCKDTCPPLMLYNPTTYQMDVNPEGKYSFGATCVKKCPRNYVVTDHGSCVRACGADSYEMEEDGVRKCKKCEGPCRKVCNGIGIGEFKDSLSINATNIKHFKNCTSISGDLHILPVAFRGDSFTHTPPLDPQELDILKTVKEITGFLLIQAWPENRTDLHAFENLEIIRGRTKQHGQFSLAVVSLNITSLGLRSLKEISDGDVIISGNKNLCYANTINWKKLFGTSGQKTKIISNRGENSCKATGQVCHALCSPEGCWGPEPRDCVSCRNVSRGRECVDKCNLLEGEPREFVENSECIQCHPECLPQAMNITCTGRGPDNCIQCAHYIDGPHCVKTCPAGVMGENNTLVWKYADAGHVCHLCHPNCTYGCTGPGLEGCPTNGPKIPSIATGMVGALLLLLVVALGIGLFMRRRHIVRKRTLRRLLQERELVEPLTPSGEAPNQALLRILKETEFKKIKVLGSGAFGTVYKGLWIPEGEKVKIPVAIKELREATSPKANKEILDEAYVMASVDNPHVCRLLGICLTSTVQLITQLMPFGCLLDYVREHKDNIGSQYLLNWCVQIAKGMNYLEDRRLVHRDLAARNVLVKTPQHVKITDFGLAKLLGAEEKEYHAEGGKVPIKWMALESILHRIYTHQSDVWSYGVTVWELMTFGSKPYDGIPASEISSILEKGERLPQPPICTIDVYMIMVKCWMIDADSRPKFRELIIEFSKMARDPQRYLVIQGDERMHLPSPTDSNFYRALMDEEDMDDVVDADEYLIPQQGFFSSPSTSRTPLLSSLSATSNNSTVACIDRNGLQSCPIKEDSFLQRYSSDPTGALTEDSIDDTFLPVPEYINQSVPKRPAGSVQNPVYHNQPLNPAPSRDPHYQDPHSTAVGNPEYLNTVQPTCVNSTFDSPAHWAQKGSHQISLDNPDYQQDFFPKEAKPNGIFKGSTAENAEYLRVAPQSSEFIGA
# T2 sequence (P25100 whole entry): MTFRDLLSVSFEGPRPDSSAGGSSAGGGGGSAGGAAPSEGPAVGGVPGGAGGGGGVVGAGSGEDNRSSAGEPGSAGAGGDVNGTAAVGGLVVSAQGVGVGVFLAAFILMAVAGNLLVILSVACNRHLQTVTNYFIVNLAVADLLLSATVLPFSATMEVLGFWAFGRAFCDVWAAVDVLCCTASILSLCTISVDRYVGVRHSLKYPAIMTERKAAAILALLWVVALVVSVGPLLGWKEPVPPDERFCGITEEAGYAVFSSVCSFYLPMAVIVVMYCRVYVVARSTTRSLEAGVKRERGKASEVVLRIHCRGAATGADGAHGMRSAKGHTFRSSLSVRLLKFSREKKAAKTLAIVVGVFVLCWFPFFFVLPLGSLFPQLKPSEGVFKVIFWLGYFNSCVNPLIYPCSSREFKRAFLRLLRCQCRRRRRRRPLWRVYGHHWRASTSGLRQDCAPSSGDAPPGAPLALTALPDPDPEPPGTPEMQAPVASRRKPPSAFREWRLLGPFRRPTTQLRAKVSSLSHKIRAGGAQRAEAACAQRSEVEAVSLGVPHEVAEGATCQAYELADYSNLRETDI
# T12 sequence (P30874 whole entry): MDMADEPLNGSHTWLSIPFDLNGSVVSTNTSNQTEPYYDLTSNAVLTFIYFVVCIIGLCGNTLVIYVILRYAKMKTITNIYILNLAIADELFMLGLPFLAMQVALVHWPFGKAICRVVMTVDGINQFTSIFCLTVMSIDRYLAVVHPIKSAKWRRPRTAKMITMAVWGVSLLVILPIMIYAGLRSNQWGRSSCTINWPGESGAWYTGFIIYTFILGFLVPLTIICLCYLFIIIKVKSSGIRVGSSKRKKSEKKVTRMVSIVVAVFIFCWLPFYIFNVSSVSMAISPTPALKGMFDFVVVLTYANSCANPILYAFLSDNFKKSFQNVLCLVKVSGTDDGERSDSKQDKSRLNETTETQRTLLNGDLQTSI
# T9 sequence (P49146 whole entry): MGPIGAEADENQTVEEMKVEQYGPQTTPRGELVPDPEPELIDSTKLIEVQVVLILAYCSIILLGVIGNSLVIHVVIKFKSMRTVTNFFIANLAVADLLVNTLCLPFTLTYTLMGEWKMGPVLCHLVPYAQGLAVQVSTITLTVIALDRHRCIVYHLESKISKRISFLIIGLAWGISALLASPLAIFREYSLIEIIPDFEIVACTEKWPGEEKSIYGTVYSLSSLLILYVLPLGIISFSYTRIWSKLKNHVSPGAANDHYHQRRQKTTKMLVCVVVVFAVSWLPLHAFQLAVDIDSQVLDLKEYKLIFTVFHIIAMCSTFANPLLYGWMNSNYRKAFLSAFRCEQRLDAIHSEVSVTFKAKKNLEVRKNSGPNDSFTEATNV
# T5 sequence (P08173 whole entry): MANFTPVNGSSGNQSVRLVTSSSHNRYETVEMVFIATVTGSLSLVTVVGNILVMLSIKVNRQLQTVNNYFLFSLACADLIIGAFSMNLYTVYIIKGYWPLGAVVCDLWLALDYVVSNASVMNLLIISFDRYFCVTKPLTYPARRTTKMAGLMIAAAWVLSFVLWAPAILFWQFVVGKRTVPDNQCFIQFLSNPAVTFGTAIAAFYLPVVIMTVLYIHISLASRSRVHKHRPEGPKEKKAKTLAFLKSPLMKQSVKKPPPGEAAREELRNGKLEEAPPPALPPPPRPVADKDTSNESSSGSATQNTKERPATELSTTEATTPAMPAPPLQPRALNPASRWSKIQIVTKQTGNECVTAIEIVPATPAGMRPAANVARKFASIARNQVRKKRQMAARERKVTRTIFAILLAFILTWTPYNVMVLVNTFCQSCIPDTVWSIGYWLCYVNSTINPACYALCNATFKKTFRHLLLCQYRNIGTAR
# T15 sequence (P32245 whole entry): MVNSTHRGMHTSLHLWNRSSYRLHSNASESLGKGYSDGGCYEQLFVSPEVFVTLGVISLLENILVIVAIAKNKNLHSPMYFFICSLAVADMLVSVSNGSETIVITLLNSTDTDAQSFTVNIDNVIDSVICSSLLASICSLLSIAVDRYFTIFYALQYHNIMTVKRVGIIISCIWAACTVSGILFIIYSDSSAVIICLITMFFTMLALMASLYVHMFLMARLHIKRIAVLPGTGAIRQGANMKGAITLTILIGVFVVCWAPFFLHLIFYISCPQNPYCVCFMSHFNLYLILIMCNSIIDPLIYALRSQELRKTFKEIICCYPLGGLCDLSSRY
# T1 sequence (Q9HB89 whole entry): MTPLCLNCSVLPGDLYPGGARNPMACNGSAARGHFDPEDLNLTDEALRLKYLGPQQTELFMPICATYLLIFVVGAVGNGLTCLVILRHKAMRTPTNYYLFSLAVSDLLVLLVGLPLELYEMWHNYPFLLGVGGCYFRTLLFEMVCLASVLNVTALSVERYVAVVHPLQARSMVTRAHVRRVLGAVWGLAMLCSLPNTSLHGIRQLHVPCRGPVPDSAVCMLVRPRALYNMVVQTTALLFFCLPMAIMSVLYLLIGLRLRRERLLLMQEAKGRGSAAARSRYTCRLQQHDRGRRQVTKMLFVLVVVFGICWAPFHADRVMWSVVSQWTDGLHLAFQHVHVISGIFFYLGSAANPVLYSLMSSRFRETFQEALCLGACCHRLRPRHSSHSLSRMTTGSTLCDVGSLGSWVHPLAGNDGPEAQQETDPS
# T4 sequence (P34972 whole entry): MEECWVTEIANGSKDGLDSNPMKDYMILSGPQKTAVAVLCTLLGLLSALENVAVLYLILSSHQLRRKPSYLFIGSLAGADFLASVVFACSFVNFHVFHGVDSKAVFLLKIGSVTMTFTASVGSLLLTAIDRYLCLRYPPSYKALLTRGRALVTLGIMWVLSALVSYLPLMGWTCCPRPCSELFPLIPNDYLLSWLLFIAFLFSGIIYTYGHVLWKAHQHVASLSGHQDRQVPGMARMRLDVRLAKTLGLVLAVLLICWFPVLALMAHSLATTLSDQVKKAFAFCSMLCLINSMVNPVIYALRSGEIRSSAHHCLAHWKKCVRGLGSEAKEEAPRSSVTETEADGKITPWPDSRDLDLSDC
# T8 sequence (P30550 whole entry): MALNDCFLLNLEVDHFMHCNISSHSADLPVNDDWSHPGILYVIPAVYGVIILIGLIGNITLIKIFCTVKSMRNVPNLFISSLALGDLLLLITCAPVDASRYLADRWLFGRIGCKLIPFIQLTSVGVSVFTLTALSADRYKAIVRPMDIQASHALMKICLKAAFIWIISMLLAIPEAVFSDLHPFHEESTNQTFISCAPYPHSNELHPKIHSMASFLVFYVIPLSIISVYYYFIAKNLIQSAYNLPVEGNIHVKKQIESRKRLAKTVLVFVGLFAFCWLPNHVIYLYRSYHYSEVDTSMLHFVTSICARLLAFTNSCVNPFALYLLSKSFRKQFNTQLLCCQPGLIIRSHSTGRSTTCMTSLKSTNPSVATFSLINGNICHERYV
# T14 sequence (P08588 whole entry): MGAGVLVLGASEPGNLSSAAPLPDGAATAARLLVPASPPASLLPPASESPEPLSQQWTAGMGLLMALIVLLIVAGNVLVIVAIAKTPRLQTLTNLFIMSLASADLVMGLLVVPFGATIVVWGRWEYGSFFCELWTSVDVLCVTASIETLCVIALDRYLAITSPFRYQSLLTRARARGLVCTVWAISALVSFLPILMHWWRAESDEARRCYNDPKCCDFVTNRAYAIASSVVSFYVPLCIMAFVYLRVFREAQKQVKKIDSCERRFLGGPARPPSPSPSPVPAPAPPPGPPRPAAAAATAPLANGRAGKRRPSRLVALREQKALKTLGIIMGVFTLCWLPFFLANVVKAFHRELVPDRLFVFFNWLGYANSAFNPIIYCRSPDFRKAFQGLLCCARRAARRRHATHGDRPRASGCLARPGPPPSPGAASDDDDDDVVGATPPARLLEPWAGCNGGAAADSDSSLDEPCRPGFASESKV
smiles,measurement,setting,value
"OC[C@H]1O[C@@H](n2cnc3c(NCc4ccc(O)cc4)ncnc32)[C@H](O)[C@@H]1O [T1-11, N ^6-(4-hydroxybenzyl)adenine riboside]",inhibition at 10 µM,Neuromedin U NMU1,-1%
same,inhibition at 10 µM,Adrenergic α 1D,8%
same,inhibition at 10 µM,Prostanoid EP2,10%
same,inhibition at 10 µM,Cannabinoid CB2,-2%
same,inhibition at 10 µM,Muscarinic M4,9%
same,inhibition at 10 µM,Ryanodine RyR3,-1%
same,inhibition at 10 µM,"Glutamate, NMDA, Glycine",7%
same,inhibition at 10 µM,"A3 adenosine receptor; 10 μM T1-11, n 2",103%
same,IC50,A3 adenosine receptor; [3],110 nM
same,Ki,A3 adenosine receptor; [3],100 nM
same,inhibition at 10 µM,Bombesin BB2,3%
same,inhibition at 10 µM,Neuropeptide Y Y2,4%
same,GTP binding compared to 2-Cl-IB-MECA (3 µM),human A3R; 100 µM T1-11,less than 50%
same,Function,"human A3R; A3 adenosine receptor, GTPγS binding, n.s. = not significant",n.s.
same,inhibition at 10 µM,Dopamine D3,-7%
same,Blood pressure,R6/2 mice,did not change the blood pressure of R6/2 mice
same,Heart rate,R6/2 mice,did not affect their heart rate and blood pressure
same,inhibition at 10 µM,Somatostatin sst2,9%
same,inhibition at 10 µM,"[1]; 10 μM T1-11, n 2",84%
same,IC50,[1]; [4],1570 nM
same,Ki,[1]; [4],540 nM
same,inhibition at 10 µM,Adrenergic β 1,7%
same,inhibition at 10 µM,Melanocortin MC4,5%
same,inhibition at 10 µM,[2],-5%

# From PMC3119665, “A New Drug Design Targeting the Adenosinergic System for Huntington's Disease” (PLoS ONE, 2011)
